Test results taken from patent US20040053999A1, “Novel compounds and methods for synthesis and therapy” (priority 1997, published 2004).

Columns and labels:
neuraminidase = biological target: T1, neuraminidase (UniProt P03468); type: biochemical; details: enzyme inhibition in vitro
T1 construct: IC50; other: compound incubated in enzyme assay buffer before the test

influenza = details: mice, Ryan et al. 1994, cited from earlier work
[1] = mouse, in vivo, cited from earlier work
[2] = in vivo; cited from earlier work

T1 sequence (P03468 whole entry): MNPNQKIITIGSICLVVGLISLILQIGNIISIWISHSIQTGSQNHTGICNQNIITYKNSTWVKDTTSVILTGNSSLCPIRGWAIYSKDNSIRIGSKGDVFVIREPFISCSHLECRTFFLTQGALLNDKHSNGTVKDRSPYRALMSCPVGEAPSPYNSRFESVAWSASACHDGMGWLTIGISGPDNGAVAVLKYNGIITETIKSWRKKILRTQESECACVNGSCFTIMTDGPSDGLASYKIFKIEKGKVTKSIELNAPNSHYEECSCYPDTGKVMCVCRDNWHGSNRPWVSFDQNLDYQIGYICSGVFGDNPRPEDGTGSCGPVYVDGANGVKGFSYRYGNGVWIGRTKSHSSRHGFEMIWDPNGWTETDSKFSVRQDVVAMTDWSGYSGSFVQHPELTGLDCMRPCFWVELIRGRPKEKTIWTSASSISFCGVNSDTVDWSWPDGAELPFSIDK

SMILES | IC50 (neuraminidase) | In vivo activity (influenza; intraperitoneal administration) | Efficacy (influenza; oral dosing) | Bioavailability ([1]; ip) | Oral bioavailability ([1]; po) | Clearance from the plasma [1] | Toxicity [2]
COCO[C@@H]1C=C(C(=O)O)C[C@H](N)[C@H]1NC(C)=O [compound 114] | 1000 to 10000 nM |  |  |  |  |  | 
CC(=O)N[C@H]1[C@H](O)C=C(C(=O)O)C[C@@H]1N=C(N)N [compound 94] | < 1000 nM |  |  |  |  |  | 
CC(=O)N[C@H]1[C@H]([C@H](O)[C@H](O)CO)OC(C(=O)O)=C[C@@H]1N=C(N)N [GG167, 4-guanidino-2,4-dideoxy-2,3-dehydro-N-acetylneuraminic acid] |  | relatively poor | poor | good | poor | rapid | similarly nontoxic
